The values that follow come from PubChem BioAssay (NCI).

Among the test systems are MCF7 breast; KM12 colon; RPMI-8226 leukemia; MALME-3M melanoma; SF-268 CNS; CAKI-1 renal; HCC-2998 colon; SR leukemia.
Experiment in all cases: NCI tumour cell line growth inhibition, 48 h

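96-well plates; 48 h exposure; 5 concentrations. Endpoints by linear interpolation between flanking doses. Not reached: highest tested concentration assigned. The concentration for 50% growth inhibition is given as GI50. TGI denotes the concentration required for complete inhibition of growth.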 A value given as a limit tells only on which side of the number the result lay.

In the case of `COc1ccc(CN2C(=O)/C(=C\c3cc(OC)c(OC)c(OC)c3)c3cc(OC)ccc32)cc1`, the GI50 was 2.91 µM with MCF7 breast; 2.04 µM with KM12 colon; 1.89 µM in the experiment with RPMI-8226 leukemia; 3.82 µM in the experiment on MALME-3M melanoma; 2.68 µM in the experiment with SF-268 CNS; 2.95 µM with CAKI-1 renal. In the experiment on HCC-2998 colon, the GI50 was 2.05 µM. For the same molecule, the TGI with MCF7 breast is 11.8 µM; in the experiment with KM12 colon it was 4.05 µM; with RPMI-8226 leukemia, 5.63 µM; in the experiment with MALME-3M melanoma it was 34.1 µM; in the experiment on SF-268 CNS it was 7.05 µM; in the experiment on CAKI-1 renal it was > 22.2 µM. The same molecule registered a TGI in the experiment on HCC-2998 colon of 3.85 µM.

Turning to `CC1=C(C)C(=O)c2c(c(C(=O)c3ccccc3)c3nc4ccccc4n3c2C)C1=O`, the GI50 was 70.1 µM with MCF7 breast; > 100 µM with KM12 colon; > 100 µM in the experiment with RPMI-8226 leukemia; > 100 µM with SR leukemia; 28.6 µM in the experiment with SF-268 CNS; > 100 µM with CAKI-1 renal. The GI50 with HCC-2998 colon is > 100 µM. Also, the TGI with MCF7 breast, with KM12 colon, in the experiment on RPMI-8226 leukemia, with SR leukemia, in the experiment on SF-268 CNS and in the experiment on CAKI-1 renal was > 100 µM in each case. In addition, the TGI in the experiment with HCC-2998 colon is > 100 µM.

Take `COc1ccc(-c2ccc(C3CC(c4ccc(O)cc4)=NN3)o2)c([N+](=O)[O-])c1` (centres undefined): the GI50 with MCF7 breast is 24.4 µM; in the experiment with KM12 colon, 24.5 µM; in the experiment on RPMI-8226 leukemia, 11.6 µM; in the experiment with MALME-3M melanoma, 19.1 µM; in the experiment on SF-268 CNS it was 22.3 µM; in the experiment on CAKI-1 renal, 34.4 µM. Besides, the TGI is 74.4 µM with MCF7 breast; 95.9 µM in the experiment on KM12 colon; 71.9 µM with RPMI-8226 leukemia; 51.3 µM in the experiment with MALME-3M melanoma; > 100 µM with SF-268 CNS; > 100 µM in the experiment with CAKI-1 renal.

As for `O=[N+]([O-])c1cnc(Sc2ccncn2)c([N+](=O)[O-])c1`, the GI50 with MCF7 breast was 5.96 µM; in the experiment with KM12 colon, 20.9 µM; in the experiment on SR leukemia it was 2.67 µM; with MALME-3M melanoma it was 1.83 µM; in the experiment on SF-268 CNS, 16 µM; with CAKI-1 renal, 1.6 µM. Moreover, the GI50 in the experiment on HCC-2998 colon was 18.4 µM. The TGI was 24.9 µM in the experiment with MCF7 breast; 55.1 µM in the experiment with KM12 colon; > 100 µM in the experiment with SR leukemia; 3.61 µM in the experiment with MALME-3M melanoma; 30.7 µM in the experiment on SF-268 CNS; 3.07 µM in the experiment on CAKI-1 renal. The molecule also showed a TGI in the experiment on HCC-2998 colon of 36.2 µM.

For the molecule `Nc1ccccc1C#CC#Cc1ccccc1N`, the GI50 in the experiment on KM12 colon was 8.46 µM; in the experiment on RPMI-8226 leukemia it was 8.08 µM; in the experiment on MALME-3M melanoma, 35.2 µM; with CAKI-1 renal, 1.36 µM. For the same molecule, the TGI was 36.2 µM in the experiment with KM12 colon; > 100 µM in the experiment with RPMI-8226 leukemia; 69.8 µM with SR leukemia; 61.3 µM in the experiment with MALME-3M melanoma; 18.7 µM with CAKI-1 renal.

As for `Cc1ccc(C)c(NC(=O)C(=O)C2C(=O)C3=C(CC2(C)C)Nc2ccccc2S3)c1` (centres undefined), the TGI in the experiment on MCF7 breast, in the experiment with KM12 colon, in the experiment with SF-268 CNS, in the experiment with CAKI-1 renal and in the experiment on HCC-2998 colon was > 100 µM throughout.

With `CN(C)/[N+]([O-])=N/Oc1cc(Nc2cccc(C(=O)O)c2)c([N+](=O)[O-])cc1[N+](=O)[O-]`, the GI50 was 36.8 µM with MCF7 breast; 86.7 µM in the experiment on KM12 colon; > 100 µM with RPMI-8226 leukemia; 43.9 µM in the experiment on SR leukemia; 30 µM with SF-268 CNS; > 100 µM in the experiment with CAKI-1 renal. Also, the TGI is > 100 µM with MCF7 breast; > 100 µM in the experiment on KM12 colon; > 100 µM in the experiment with RPMI-8226 leukemia; > 100 µM with SR leukemia; 78.5 µM in the experiment with SF-268 CNS; > 100 µM in the experiment with CAKI-1 renal.

Consider `CCn1c(=O)c(-c2ccn[nH]2)cc2c(C)nc(N)nc21`, for which the GI50 with MCF7 breast was 0.389 µM; in the experiment with KM12 colon it was 3.3 µM; with RPMI-8226 leukemia, 0.821 µM; with SR leukemia, 1.64 µM; with MALME-3M melanoma it was 0.167 µM; in the experiment on SF-268 CNS it was 1.53 µM. For the same molecule, in the experiment on HCC-2998 colon, the GI50 was 5.03 µM. In addition, the TGI in the experiment on MCF7 breast is > 100 µM; with KM12 colon it was > 100 µM; with RPMI-8226 leukemia it was 12.3 µM; in the experiment on SR leukemia it was > 100 µM; in the experiment with MALME-3M melanoma, 1.33 µM; with SF-268 CNS it was > 100 µM. Besides, the TGI in the experiment with HCC-2998 colon is > 100 µM.

As to `CC(O)C1OC(O)C2OC(C)(C)OC12` (centres undefined), the TGI in the experiment with MCF7 breast, with KM12 colon, in the experiment on RPMI-8226 leukemia, in the experiment on SR leukemia, in the experiment with SF-268 CNS and with CAKI-1 renal was > 100 µM in each case.

Regarding `CCCCCCCCCCCCN1C(C)=CS/C1=C\C=C\c1scc(C)[n+]1CCCCCCCCCCCC`, the GI50 is 1.12 µM in the experiment on SR leukemia, 1.98 µM with SF-268 CNS, 1.74 µM in the experiment on CAKI-1 renal and 2.11 µM in the experiment with HCC-2998 colon. Also, the TGI in the experiment on SR leukemia was > 100 µM; with SF-268 CNS, 5.7 µM; with CAKI-1 renal, 12.8 µM; in the experiment with HCC-2998 colon, 11 µM.

With `O=C(Nc1ccc(S(=O)(=O)Nc2nccs2)cc1)c1cccnc1Nc1cccc(Cl)c1`, the GI50 with MCF7 breast was 12.2 µM; in the experiment on KM12 colon, 10.3 µM; with RPMI-8226 leukemia, 19.8 µM; with MALME-3M melanoma, 16.9 µM; in the experiment on SF-268 CNS it was 12.8 µM; with CAKI-1 renal, 17 µM. Moreover, the GI50 in the experiment on HCC-2998 colon was 14.1 µM. In addition, the TGI in the experiment on MCF7 breast was determined as 32.5 µM; with KM12 colon, 22.9 µM; in the experiment on RPMI-8226 leukemia, 89.2 µM; in the experiment on MALME-3M melanoma, 48.1 µM; in the experiment on SF-268 CNS, 31.5 µM; in the experiment with CAKI-1 renal, 52.2 µM. In the experiment on HCC-2998 colon, this molecule returned a TGI of 27.9 µM.

Regarding `Oc1ccc2ccccc2c1C=NCCCN=Cc1c(O)ccc2ccccc12`, the GI50 was 17.1 µM in the experiment on MCF7 breast; 15.1 µM with KM12 colon; 4.11 µM in the experiment with RPMI-8226 leukemia; 6.96 µM in the experiment with MALME-3M melanoma; 16.3 µM in the experiment on SF-268 CNS; 15.7 µM in the experiment with CAKI-1 renal. Further, the TGI is > 100 µM with MCF7 breast; 36.2 µM with KM12 colon; 31.1 µM in the experiment on RPMI-8226 leukemia; 29.7 µM in the experiment with MALME-3M melanoma; > 100 µM with SF-268 CNS; 49.5 µM in the experiment with CAKI-1 renal.
